We go through 1 compound from patent US9856232B1, “Dihydropyrimidinone derivatives” (KING SAUD UNIVERSITY, priority 2017, dated 2018).

Marks after values point to notes of the source that are not given here.

Common to all, as to format: in vivo, Albino Wistar rats
The test system of test [1] is gastric mucosal non-protein sulfhydryls, induced by 80% ethanol. In words: Estimation of non-protein sulfhydryls (NP-SH). The conditions noted are these: dose 50; stomach tissue, 80% ethanol-treated rats; mean ± SE. The procedure: (§1) Albino Wistar rats of either sex, approximately the same age, weighing 150 to 200 g and fed on a diet of standard chow were used in this study. They were randomly divided into experimental groups of six rats each. Compounds (N-1 to N-18) 12.5, 25, and 50 mg/kg were given orally in the anti-ulcer studies and intraperitoneally for gastric secretion evaluation. The rats were sacrificed, and the stomachs removed and opened along the greater curvature, After washing with saline, the gastric lesions were quantified by a person unaware of the treatments. The animal study protocol was approved by the Research and Ethics Committee of the Experimental Animal Care Society, College of Pharmacy, King Saud University, Riyadh, Saudi Arabia.
Estimation of non-protein sulfhydryls (NP_SH): Gastric mucosal non-protein sulfhydryls were measured according to the method. The glandular part of the stomach was homogenized in ice-cold 0.02 mmol/L ethylenediaminetetraacetic acid (EDTA). Aliquots of 5 mL of the homogenates were mixed in 15 mL test tubes with 4 mL of distilled water and 1 mL of 50% trichloroacetic acid (TCA). The tubes were shaken intermittently for 10 minutes and centrifuged at 3000 r/min. Two milliliters of supernatant were mixed with 4 mL of 0.4 mol/L Tris buffer at pH 8.9. Then 0.1 ML of 5, 5′-dithio-bis (2-nitrobenzoic acid) (DTNB) was added and the sample was shaken. The absorbance was measured within 5 minutes of DTNB addition at 412 nm against a reagent blank.

For test [2], the system named is Gastric lesions induced by necrotizing agents (80% ethanol, 0.2 mol/L NaOH or 25% NaCl). Briefly: Gastric lesions induced by necrotizing agents (cytoprotection). The conditions noted are these: 50 mg/kg, i.p; 30 min before necrotizing agent; mean ± SE.
Test [3] deals with Gastric lesions induced by 80% ethanol. In words: Gastric lesions induced by ethanol (ulcer index by severity scores). The settings on record: Rattus norvegicus, po, Ranitidine 50 mg/kg, vs 80% EtOH group of the row; read-out: Gastric lesions induced by 80% ethanol, % change. The method, then:
as §1
Gastric lesions induced by ethanol: Albino rats of either sex weighing between (150-200 g) are divided into groups. The animals were fasted for 24 hours with free access to water. Animals were given test drugs or standard drug. One hour later 1 mL/200 gm of 80% ethanol is administered orally to each animal. The animals were anaesthetized 1 hour latter with anesthetic ether and stomach was incised along the greater curvature and ulceration was scored. The number of ulcers and the length of each ulcer were measured. Ulcer index was calculated using severity scores. The mucosal damage was examined by means of a magnifying glass. For each stomach the mucosal damage was assessed according to the following scoring system: 0.5 redness; 1.0 spot ulcers; 1.5 hemorrhagic streaks; 2.0 ulcers<3, but≦5; 3.0 ulcers>5. Table 1 provides the effect of compounds on gastric lesions induced by 80% ethanol (mean±SE).

In test [4] the test system is gastric wall mucus in stomach tissue, change induced by 80% ethanol. Briefly: Determination of gastric wall mucus (GWM). The settings on record: 50 mg/kg, i.p; 80% ethanol-treated rats; mean ± SE. The method, then:
as §1
Determination of gastric wall mucus (GWM): Gastric wall mucus was determined according to the modified procedure. The glandular segment of the stomach was separated from the rumen of the stomach, weighed, and transferred immediately to 10 mL of 0.1% w/v Alcian blue solution (in […] sucrose solution buffered with […] sodium acetate at pH 5. Tissue was stained for 2 hours in Alcian blue, and excess dye was removed by two successive rinses with 10 mL of […] sucrose, firstly after 15 minutes and then after 45 minutes. Dye complexed with the gastric wall mucus was extracted with 10 ml of […] magnesium chloride which was intermittently shaken for 1 minute at 30 minute intervals for 2 hours. Four milliliters of blue extract were then vigorously shaken with an equal volume of diethyl ether. The resulting emulsion was centrifuged at 4000 r/min for 10 minutes and the absorbance of the aqueous layer was recorded at 580 nm. The quantity of Alcian blue extracted per gram of wet glandular tissue was then calculated. Table 6 provides the effect of compounds on the change in gastric wall mucus in stomach tissue induced by 80% ethanol (mean±SE).

Test [5] relates to malondialdehyde in stomach tissue, induced by 80% ethanol. In words: Determination of malondialdehyde (MDA). The settings on record: dose 50, 80% ethanol-treated rats, mean ± SE. The method, then: as §1
Determination of malondialdehyde (MDA): The animals were sacrificed 1 hour after ethanol administration. The stomachs were removed and each was homogenized in 0.15 mol/L KCl (at 4° C.) in a Potter-Elvehjem type C homogenizer to give a 10% w/v homogenate. Aliquots of homogenate 1 mL in volume were incubated at 37° C. for 3 hours in a metabolic shaker. Then 1 mL of 10% aqueous TCA was added and mixed. The mixture was then centrifuged at 800 g for 10 minutes. One milliliter of the supernatant was removed and mixed with 1 mL of 0.67% w/v thiobarbituric acid in water and placed in a boiling water bath for 10 minutes. The mixture was cooled and diluted with 1 mL distilled water. The absorbance of the solution was then read at 535 nm. The content of malondialdehyde (nmol/g wet tissue) (index of the magnitude of lipid peroxidation) was then calculated, by reference to a standard curve of malondialdehyde solution. Table 7 provides the effect of compounds on the levels of MDA, NP_SH, and total protein in stomach tissue induced by 80% ethanol (mean±SE).

Test [6] has as its system gastric secretion in pylorus-ligated Shay rats. Briefly: Pylorus-ligated rats: gastric secretion, acidity and lesion index. Set-up: Ulcer Index, pylorus-ligated Shay rats: scale not given here. The settings on record: 50 mg/kg, i.p.; 6 h after pylorus ligation; mean ± SE. The method, then:
as §1
Pylorus-ligated rats: Rats were fasted for 36 hours with access to water ad libitum before pylorus ligation under ether anesthesia was carried out. Care was taken not to cause bleeding or to occlude blood vessels. Compounds (N-3, N-8, N-11, and N-15) were administered intraperitoneally immediately after pylorus ligation. The rats were sacrificed at 6 hours after pylorus ligation. The stomachs were removed, the contents were collected, volumes measured, centrifuged and analyzed for tritratable acidity against […], NaOH at pH 7.0. Table 5 provides the effect of compounds on gastric secretion, acidity, and gastric lesion index in pylorus-ligated Shay rats (mean±SE).

Test [7] has as its system Indomethacin-induced gastric mucosal lesions. In words: Gastric lesions induced by Indomethacin. Details: scale not given here. The conditions noted are these: 50 mg/kg, i.p; 30 min before Indomethacin 30 mg/kg; mean ± SE. From the text:
Albino Wistar rats of either sex, approximately the same age, weighing 150 to 200 g and fed on a diet of standard chow were used in this study. They were randomly divided into experimental groups of six rats each. […] The rats were sacrificed, and the stomachs removed and opened along the greater curvature, After washing with saline, the gastric lesions were quantified by a person unaware of the treatments. The animal study protocol was approved by the Research and Ethics Committee of the Experimental Animal Care Society, College of Pharmacy, King Saud University, Riyadh, Saudi Arabia.
Gastric lesions induced by Indomethacin: Indomethacin was suspended in 1.0% carboxymethylcellulose (CMC) in water (6 mg/mL) and administered orally to the 36 hour fasted rats at a dose of 30 mg/kg body weight. Control rats were treated similarly with an equivalent amount of vehicle. […] The animals were sacrificed 6 hours after treatment. The stomachs were excised, rinsed with normal saline and examined for ulceration. Table 3 provides the effect of compounds on Indomethacin-induced gastric mucosal lesions (mean±SE).

Test [8] concerns total protein in stomach tissue, induced by 80% ethanol. Briefly: Total protein in stomach tissue. The conditions noted are these: dose 50, 80% ethanol-treated rats, mean ± SE.
Test [9] deals with Hypothermic restraint stress-induced intraluminal bleeding and gastric lesion. In words: Hypothermic restraint stress-induced ulcers. Set-up: Gastric Lesion Ulcer Index: scale not given here. The settings on record: 50 mg/kg; hypothermic restraint 3 h; mean ± SE.

For the compound `CNC(=C[N+](=O)[O-])NCCSCc1ccc(CN(C)C)o1` [Ranitidine, reference compound], the NP-SH in [1] is 4.24 ± 0.15**^b nmol/g. In [2], the “Ulcer Index, 0.2 mol/L NaOH” value stood at 1.00 ± 0.36; the “Ulcer Index, 25% NaCl” value was 1.16 ± 0.30; the “Ulcer Index, 80% EtOH” value is recorded as 1.50 ± 0.22. Besides, the inhibition in vivo at 50 mg/kg in test [3] came out at 73.3%. In addition, the “Gastric Wall Mucus” value in test [4] is recorded as 287.24 ± 10.70***^b μg/g. In addition, the MDA in test [5] is 1.65 ± 0.02***^b nmol/g. Further, in [6], the “Titratable Acidity” value is given as 58.88 ± 1.85 mEg/L; the “Ulcer Index, pylorus-ligated Shay rats” value is reported as 0.50 ± 0.22; the “Volume of Gastric Content” value is recorded as 4.06 ± 0.18 mL. Further, the “Ulcer Index, indomethacin-induced gastric mucosal lesions” value in test [7] is given as 8.50 ± 0.56. For the same compound, in [8], the “Total Protein” value is 104.59 ± 1.59***^b g/L. In [9], the “Gastric Lesion Ulcer Index” value turned out to be 9.66 ± 0.95 and the “Intraluminal Bleeding Score” value was 0.83 ± 0.30.
